Data set [1] deals with pseudotyped VSV expressing MARV glycoprotein. Kind of data set: microbe, parasite or virus in culture. The format is cell-based, Marburg virus (MARV). The conditions noted are these: Vesicular stomatitis virus, Vero, 24 h, read-out: EC50 (uM) Pseudotype Assays MARV.
In data set [2] the test system is pseudotyped VSV expressing EBOV glycoprotein. Kind of data set: microbe, parasite or virus in culture. The class given is cell-based, Ebola virus (EBOV). The conditions noted are these: Zaire ebolavirus, Vero, 24 h, read-out: EC50 (uM) Pseudotype Assays EBOV.
For data set [3] the following is noted: 1 h, pH 7.4.
A further data set is described as follows: in vitro. The conditions noted are these: African green monkey.
In data set [4] the test system is pseudotyped VSV expressing BDBV glycoprotein. Kind of data set: microbe, parasite or virus in culture. The format is cell-based, Bundibugyo virus (BDBV). The conditions noted are these: Vesicular stomatitis virus, Vero, 24 h, read-out: EC50 (uM) Pseudotype Assays BDBV.
For data set [5] the following is noted: 1 h, pH 7.4. This is another data set of the same source.
For data set [6], the system named is pseudotyped VSV expressing SUDV glycoprotein. Kind of data set: microbe, parasite or virus in culture. The conditions noted are these: Vesicular stomatitis virus, Vero, 24 h, read-out: EC50 (uM) Pseudotype Assays SUDV. The format is cell-based, Sudan virus (SUDV).
For data set [7] the following is noted: 1 h, pH 7.4. The source holds these as a separate data set.
The conditions of data set [8]: 1 h, pH 7.4. The source holds these as a separate data set.
The test system of a further data set is SUDV-Gulu. Kind of data set: microbe, parasite or virus in culture. The format is cell-based, Sudan virus (SUDV).
Another data set concerns EBOV-Zaire. Kind of data set: microbe, parasite or virus in culture. The class given is cell-based, Ebola virus (EBOV).
For data set [9] the following is noted: 1 h, pH 7.4. This is another data set of the same source.
The conditions of data set [10]: 1 h, pH 7.4. This is another data set of the same source.
The test system of the next data set is SUDV (strain Gulu). Kind of data set: microbe, parasite or virus in culture. The class given is cell-based, Sudan virus (SUDV).
A further data set has as its system WT EBOV-Mayinga. Kind of data set: microbe, parasite or virus in culture. The format is cell-based, Ebola virus (EBOV). The conditions noted are these: for EC50 / EC90: Zaire ebolavirus; for EC50: read-out: WT EBOV-Mayinga EC50 (uM); for EC90: read-out: WT EBOV-Mayinga EC90 (uM).
Another data set has as its system EBOV (strain kikwit). Kind of data set: microbe, parasite or virus in culture. The class given is cell-based, Ebola virus (EBOV).

SMILES strings stand for the structures. Where a name gives a salt, the structure may show the parent alone.

As to `N[C@H]1CC[C@H](NC(=O)C23CC4CC(CCl)(C2)CC(c2ccccc2)(C4)C3)CC1` (mixture of isomers) [Example E1, rac-trans-N-(4-aminocyclohexyl)-3-(chloromethyl)-5-phenyladamantane-1-carboxamide hydrochloride], the EC50 (in general, the midpoint of the concentration-response curve) in [1] is above 1 µM; in data set [2], 0.034 µM; in data set [4], 0.12 µM; in [6], 0.56 µM. In data set [3], the “Percent parent compound remaining at 60 minutes in liver microsomes, Human” value (“Percent parent compound remaining … Human” for short) was found to be 89%. For the same compound, the CC50 in “in vitro” stood at 13800 nM. In addition, the “Percent parent compound remaining at 60 minutes in liver microsomes, Guinea Pig” value (“Percent parent compound remaining … Guinea Pig” below) in [5] came to 100%. For the same compound, the “Percent parent compound remaining at 60 minutes in liver microsomes, Monkey” value (“Percent parent compound remaining … Monkey” below) in data set [7] is 72%. For the same compound, the “Percent parent compound remaining at 60 minutes in liver microsomes, Mouse” value (“Percent parent compound remaining … Mouse” below) in [8] turned out to be 69%.
For the compound `CCC=C1C2CC3(C(=S)N[C@H]4CC[C@H](N)CC4)CC1CC(c1ccccc1)(C2)C3` (relative stereo) [Example D2, trans-N-(4-aminocyclohexyl)-3-phenyl-6-propylideneadamantane-1-carbothioamide], the EC50 in data set [2] came out at 0.051 µM; in the data set on SUDV-Gulu (Sudan ebolavirus, Vero, read-out: SUDV-Gulu EC50 (uM)) it was 0.11 µM; in data set [6], 0.072 µM; in the data set on EBOV-Zaire (Zaire ebolavirus, Vero, read-out: EBOV-Zaire EC50 (uM)) it was 2.6 µM. The “SUDV-Gulu SI50 (CC50/EC50)” value with SUDV-Gulu stood at 78. Further, the “Percent parent compound remaining … Human” value in data set [3] came to 100%. Besides, the CC50 in “in vitro” was determined as 1780 nM. Further, the “Percent parent compound remaining … Guinea Pig” value in [5] was 100%. Further, in [7], the “Percent parent compound remaining … Monkey” value turned out to be 100%. Further, the “EBOV-Zaire SI50 (CC50/EC50)” value in the data set on EBOV-Zaire turned out to be 3.3.
As for `CC1C2CC3(C(=O)N[C@H]4CC[C@H](N)CC4)CC1CC(c1ccccc1)(C2)C3` (stereo partly drawn) [Example F1, trans-N-(4-aminocyclohexyl)-6-methyl-3-phenyladamantane-1-carboxamide], the half-maximal effective concentration (EC50) in data set [1] was above 3 µM; in data set [2], 0.027 µM; in data set [4] it was 0.065 µM; in [6], 0.21 µM. Besides, in data set [3], the “Percent parent compound remaining … Human” value is 91%. The same compound displayed a CC50 in the data set “in vitro” of 13300 nM. The “Percent parent compound remaining … Guinea Pig” value in [5] turned out to be 79%. The “Percent parent compound remaining at 60 minutes in liver microsomes, Dog” value in data set [9] came out at 82%. Moreover, the “Percent parent compound remaining … Monkey” value in data set [7] amounted to 92%. In addition, the “Percent parent compound remaining … Mouse” value in data set [8] was determined as 83%. In addition, in data set [10], the “Percent parent compound remaining at 60 minutes in liver microsomes, Rat” value stood at 99%.
As for `CCC1C2CC3(C(=O)N[C@H]4CC[C@H](N)CC4)CC1CC(c1ccccc1)(C2)C3` (stereo partly drawn) [Example F2], the EC50 is 3.1 µM in [1]; 0.011 µM in data set [2]; 0.039 µM with SUDV (strain Gulu) (Sudan ebolavirus, HeLa, read-out: SUDV-Gulu EC50 (uM)); 0.014 µM in the data set on WT EBOV-Mayinga; 0.11 µM with EBOV (strain kikwit) (Zaire ebolavirus, HeLa, read-out: EBOV-Kikwit EC50 (uM)); 0.03 µM in data set [4]. Also, the concentration giving a half-maximal response (EC50) in data set [6] stood at 0.27 µM. Besides, in the data set with SUDV (strain Gulu), the “SUDV-Gulu SI50 (CC50/EC50)” value is given as 291.26. For the same compound, the “WT EBOV-Mayinga SI50 (CC50/EC50)” value in the data set on WT EBOV-Mayinga was found to be 706.84. For the same compound, the “WT EBOV-Mayinga SI90 (CC50/EC90)” value with WT EBOV-Mayinga came to 209.99. Moreover, the EC90 – broadly, the concentration needed for an effect of 90% – in the data set on WT EBOV-Mayinga is 0.048 µM. In addition, the “EBOV-Kikwit SI50 (CC50/EC50)” value in the data set on EBOV (strain kikwit) came to 90.33. The “Percent parent compound remaining … Human” value in data set [3] was 85%. In the data set “in vitro”, this compound registered a CC50 of 12600 nM. In addition, the “Percent parent compound remaining … Guinea Pig” value in data set [5] is 68%. The “Percent parent compound remaining at 60 minutes in liver microsomes, Dog” value in data set [9] stood at 80%. Further, the “Percent parent compound remaining … Monkey” value in data set [7] was 100%. For the same compound, in data set [8], the “Percent parent compound remaining … Mouse” value amounted to 48%. Further, the “Percent parent compound remaining at 60 minutes in liver microsomes, Rat” value in data set [10] was determined as 86.5%.
In the case of `CCCC1C2CC3(C(=O)N[C@H]4CC[C@H](N)CC4)CC1CC(c1ccccc1)(C2)C3` (stereo partly drawn) [Example F3], the EC50 in data set [1] is 1.6 µM; in data set [2] it was 0.005 µM; in the data set with WT EBOV-Mayinga, around 0.008 µM; in data set [4], 0.08 µM; in [6], 0.39 µM. In the data set on WT EBOV-Mayinga, the EC90 is around 0.01 µM. The “Percent parent compound remaining … Human” value in [3] was 91%. In the data set “in vitro”, this compound returned a CC50 of 4650 nM. In addition, the “Percent parent compound remaining … Guinea Pig” value in data set [5] came to 48%. The “Percent parent compound remaining … Monkey” value in data set [7] worked out at 100%. Moreover, the “Percent parent compound remaining … Mouse” value in [8] came to 26%.

Source of the values: patent US20240238265A1 (priority 2020, published 2024).
